The values below come from patent publication US12152034B2, “FGFR inhibitors and methods of making and using the same” (Relay Therapeutics, Inc., priority 2020, dated 2024).

“Also recorded” adds a separate entry of the source.

What all share (assay type): physicochemical
Data set [1] is described as follows: Solubility in Fasted State Simulated Intestinal Fluid (FaSSIF) and final pH in solution, salt screen of compound I-2. The note with it: for Final pH: final pH in solution of the FaSSIF solubility sample. On the procedure:
The free base of Compound I-1 (compound I-2, 30 mg) was suspended in IPA (20 Vol., 600 μl at 50° C.). The suspensions were then cooled down to 5° C. at 0.1° C./min and were held at this temperature for 16 hrs. Stirring (500 rpm) was maintained throughout. Any gums that formed were maturated between 25 and 50° C. (4 hours at each temperature for 24 hrs). The suspensions were isolated by filtration under suction and air dried then analysed by XRPD. Any new patterns identified by XRPD were analysed further by NMR, TGA, DSC and stability at 40 C/75% RH for 1 week.
Several samples were analyzed for solubility in Fasted State Simulated Intestinal Fluid (FaSSIF) and final pH in solution.

The nature of data set [2]: Storage at 40° C./75% RH for 7 days (one week), form checked by XRPD. Particulars: 40° C./75% RH, one week (7 days). The procedure: The suspensions were then cooled down to 5° C. at 0.1° C./min and were held at this temperature for 16 hrs. Stirring (500 rpm) was maintained throughout. Any gums that formed were maturated between 25 and 50° C. (4 hours at each temperature for 24 hrs). The suspensions were isolated by filtration under suction and air dried then analysed by XRPD. Any new patterns identified by XRPD were analysed further by NMR, TGA, DSC and stability at 40 C/75% RH for 1 week.

The nature of data set [3]: Hygroscopicity suggested by Thermal Gravimetric Analysis (TGA) weight loss. Particulars: suggested by TGA weight loss / 1H NMR solvent content. On the procedure: Thermal Gravimetric Analysis (TGA): TGA data was collected on a TA Instruments Q5000 TGA. A predefined amount of the sample, 2.0 to 10.0 mg, was placed in an aluminum pan and heated at 10° C./minute from 40° C. to 300° C., or varied as experimentation dictated. A purge of dry nitrogen at 25 ml/minute was maintained over the sample. The instrument control and data acquisition are acquired using Q Advantage software release version 5.5.23. The data was processed and presented using the TA Universal Analysis 2000 software version 4.5A build 4.5.0.5.

Data set [4] in a line: Solubility assessment in solvents by aliquot addition (5-40 vol, 25° C., then heating). Particulars: for solubility in the solvents tested (in words): 13 solvents, up to 40 vol; for Observation after treatment: 40 vol. On the procedure:
Compound II-1 (40 mg) was treated with an aliquot of solvent (200 μl for 5 vol, 400 μl for 10 vol, 800 μl for 20 vol) and left to stir at 25° C. for 15 minutes. After 15 minutes, suspensions were treated with another aliquot of solvent and left to stir for the same duration again. Any solutions were removed from stirring and further solvent additions. This procedure was repeated up to 40 vol.
At 40 vol, any remaining suspensions were heated to 40° C. at a rate of 10° C./min. Samples that remained as suspensions at 40° C. were moved to the maturation chamber (RT/50° C.) for 4 days. All solutions from solvent additions were heated to 50° C. before cooling to 5° C. at a rate of 0.1° C./min, then held at 5° C. overnight. […]

Data set [5] is described as follows: Solubility measurements in SGF, FeSSIF and FaSSIF with XRPD of residual solids. The note with it: for solubility in FaSSIF (in words): simulated fasting state intestinal fluid. The source says:
The results from the solubility measurements in simulated gastric fluid (SGF), simulated fed state conditions in the small intestines (FeSSIF), and simulated fasting state conditions in the small intestines fluid (FaSSIF) are summarised in Table 12. The salts show reduced solubility in SGF compared to the free form.
Crystalline FB Form A, HCl Form A, and the sufate salt Form A were scaled up for solubility analysis.
HCl Form A was successfully scaled up for solubility analysis.

Data set [6] in a line: Solubility in organic solvents quoted in competitive suspension equilibration studies. Particulars: organic solvent or mixture.
[7] abbreviates: listed as Compound III-1 Form A.
Setting [8] is: listed as Compound III-1 Form B.

Consider `C=C(C)C(=O)Nc1ccc(-c2c(-c3ccc(Oc4nccc(C)n4)c(F)c3)c3c(N)ncnc3n2C)cc1` [Compound I-3], for which the “Solubility in FaSSIF” value in data set [1] (Fasted State Simulated Intestinal Fluid, solids from salt screen in IPA, listed as HBr - Form A) is 4.5 µg/mL. The “Final pH” value in data set [1] (listed as HBr - Form A) is on record as 5.5.
With `C=C(C)C(=O)Nc1ccc(-c2c(-c3ccc(Oc4nccc(C)n4)c(F)c3)c3c(N)ncnc3n2C)cc1` [Compound I-6], the “Solubility in FaSSIF” value in data set [1] (Fasted State Simulated Intestinal Fluid, solids from salt screen in IPA, listed as Mesylate - Form A) is 6.5 µg/mL. Moreover, the “Final pH” value in data set [1] (listed as Mesylate - Form A) was 4.82.
For `C=C(C)C(=O)Nc1ccc(-c2c(-c3ccc(Oc4nccc(C)n4)c(F)c3)c3c(N)ncnc3n2C)cc1` [Compound I-4], the “Solubility in FaSSIF” value in data set [1] (Fasted State Simulated Intestinal Fluid, solids from salt screen in IPA, listed as Sulfate - Form B) is 1.2 µg/mL. In data set [1] (listed as Sulfate - Form B), the “Final pH” value was 5.86.
As to `C=C(C)C(=O)Nc1ccc(-c2c(C3=CC[C@H](C(=O)N4CCCC4)CC3)c3c(N)ncnc3n2C)c(C)c1.CS(=O)(=O)O` [Compound II-5], the “XRPD after storage at 40° C./75% RH for 7 days” value in data set [2] is listed as “no change”. The “hygroscopicity (in words)” value in data set [3] is given as “hygroscopic”.
As for `C=C(C)C(=O)Nc1ccc(-c2c(C3=CC[C@H](C(=O)N4CCCC4)CC3)c3c(N)ncnc3n2C)c(C)c1` [Compound II-1, (R)—N-(4-(4-amino-7-methyl-5-(4-(pyrrolidine-1-carbonyl)cyclohex-1-en-1-yl)-7H-pyrrolo[2,3-d]pyrimidin-6-yl)-3-methylphenyl)methacrylamide], the “XRPD after storage at 40° C./75% RH for 7 days” value is recorded as “no change; also recorded: Unchanged” in data set [2] (listed as Compound II-1 Form A) and “Unchanged” in data set [2] (listed as Compound II-1 Form B). For the same compound, the “hygroscopicity (in words)” value is “hygroscopic” in data set [3] (listed as Compound 1 Pattern 2) and “slightly hygroscopic” in data set [3] (listed as Compound II-1 Form A). For the same compound, the “solubility (solvent volumes to give a clear solution)” value is listed as 10 vol in data set [4] (10% H2O/IPA, 25° C.); 20 vol in data set [4] (THF, 25° C.); 20 vol in data set [4] (ethanol, 25° C.). Moreover, the “solubility in the solvents tested (in words)” value in data set [4] is “reasonable solubility in polar solvents”.
Turning to `C#Cc1cc(OC)c(-c2c(-c3ccc(Oc4nccc(C)n4)c(F)c3)c3c(C)ncnc3n2C)cn1` [Compound III-1, 6-(6-ethynyl-4-methoxypyridin-3-yl)-5-(3-fluoro-4-((4-methylpyrimidin-2-yl)oxy)phenyl)-4,7-dimethyl-7H-pyrrolo[2,3-d]pyrimidine], the “XRPD after storage at 40° C./75% RH for 7 days” value in data set [2] (setting [7]) was “no change in form”; in data set [2] (setting [8]), “conversion to Form A (plus additional peaks)”; in data set [2] (listed as Compound III-1 Form C), “no change in form”. Besides, the figures for the “hygroscopicity (in words)” value in data set [3] (setting [7]) and in data set [3] (setting [8]) were “potentially hygroscopic” and “possibly hygroscopic”, respectively. Besides, the Observation after treatment result in data set [4] (2-Propanol, after maturation (RT/50° C.) 4 days) is “Suspension”; in data set [4] (10% Water/IPA, after maturation (RT/50° C.) 4 days), “Suspension”; in data set [4] (10% Water/MeCN, after cooling from 50° C. to 5° C.), “Clear”; in data set [4] (Acetone, after cooling from 50° C. to 5° C.) it was “Very thin”; in data set [4] (Ethanol, after maturation (RT/50° C.) 4 days), “Suspension”; in data set [4] (Ethyl acetate, after maturation (RT/50° C.) 4 days), “Suspension”. Moreover, the Observation after treatment entry in data set [4] (Isopropyl acetate, after maturation (RT/50° C.) 4 days) is given as “Suspension”; in data set [4] (MEK, after maturation (RT/50° C.) 4 days), “Suspension”; in data set [4] (Methanol, after cooling from 50° C. to 5° C.), “Very thin”; in data set [4] (TBME, after maturation (RT/50° C.) 4 days) it was “Suspension”; in data set [4] (THF, after cooling from 50° C. to 5° C.), “Clear”; in data set [4] (Water, after maturation (RT/50° C.) 4 days), “Suspension”. Further, the Observation after treatment entry in data set [4] (n-Heptane, after maturation (RT/50° C.) 4 days) is recorded as “Suspension”. Moreover, the “solubility (solvent volumes to give a clear solution)” value in data set [4] (10% water/MeCN, 50° C.) is given as 40 vol; in data set [4] (THF, 25° C.), 40 vol; in data set [4] (acetone, 50° C.), 40 vol; in data set [4] (methanol, 50° C.), 40 vol. Further, the “solubility in the solvents tested (in words)” value in data set [4] is “low solubility”. In data set [5] (all media (SGF, FeSSIF, FaSSIF)), the “XRPD of residual solids after solubility measurement” value is given as “remained unchanged”. For the same compound, in data set [5], the “solubility in FaSSIF (in words)” value was “lowest solubility”.
On to `C=C(C)C(=O)Nc1ccc(-c2c(-c3ccc(Oc4nccc(C)n4)c(F)c3)c3c(N)ncnc3n2C)cc1.Cl` [Compound I-1, N-(4-(4-amino-5-(3-fluoro-4-((4-methylpyrimidin-2-yl)oxy)phenyl)-7-methyl-7H-pyrrolo[2,3-d]pyrimidin-6-yl)phenyl)methacrylamide hydrochloride], for which the Solubility in data set [1] (Fasted State Simulated Intestinal Fluid (FaSSIF), fassif, thermodynamic from solid, Fasted State Simulated Intestinal Fluid, solids from salt screen in IPA) is 5.1 µg/mL; in data set [6] (ethanol), 2300 µg/mL; in data set [6] (methanol), 18700 µg/mL. In addition, the “Final pH” value in data set [1] is reported as 4.06.
Consider `C#Cc1cc(OC)c(-c2c(-c3ccc(Oc4nccc(C)n4)c(F)c3)c3c(C)ncnc3n2C)cn1.O=S(=O)(O)O` [Compound III-4], for which the “XRPD after storage at 40° C./75% RH for 7 days” value in data set [2] (listed as Compound III-1 sulfate salt) is recorded as “small changes in the XRPD diffractogram”. Besides, the “XRPD of residual solids after solubility measurement” value in data set [5] (FaSSIF) was “too poorly crystalline to assign”. Besides, the “solubility in FaSSIF (in words)” value in data set [5] is “slightly more soluble than the chloride salt”. Besides, the “solubility in FeSSIF (in words)” value in data set [5] (simulated fed state intestinal fluid) is listed as “slightly more soluble than the chloride salt”.

For orientation: Solubility means how much of the substance goes into solution per volume.
